Data on 4 compounds can be found in DBAASP.

As usually defined, the MIC is the smallest concentration in the dilution series that meets the test's criterion for growth inhibition. Low values mean greater potency, high ones weaker potency.

Structures are written as SMILES. Converted amounts (≈) assume the structure as drawn. A value given as a limit tells only on which side of the number the result lay.

Common to all, as to test: ≥ marks a high value that may be exact or a test limit, other limits are often not marked, values filed in µg/mL are converted to µM
In assay [1] the test system is Candida albicans NCYC 1467.
The subject of assay [2] is Staphylococcus aureus NCTC 12493.
The test system of assay [3] is Enterococcus faecalis NCTC 12697.
Assay [4] relates to Escherichia coli NCTC 10418.
The test system of assay [5] is Pseudomonas aeruginosa ATCC 27853.
Assay [6] concerns Staphylococcus aureus NCTC 10788.
The test system of assay [7] is Staphylococcus epidermidis ATCC 51625.
In assay [8] the test system is Pseudomonas aeruginosa ATCC 19660.
The subject of assay [9] is Klebsiella aerogenes ATCC 13048.
The subject of assay [10] is Enterococcus faecium ATCC 700221.
Assay [11] has as its system Staphylococcus aureus ATCC 33591.
For assay [12], the system named is Streptococcus pneumoniae ATCC 49619.
Assay [13] concerns Acinetobacter baumannii ATCC 17978D-5.
Assay [14] concerns Salmonella enterica subsp. enterica serovar Senftenberg CICC 21502.
Assay [15] deals with Salmonella enterica subsp. enterica serovar Wandsworth CICC 21504.
In assay [16] the test system is Salmonella enterica subsp. enterica serovar Jerusalem CICC 21651.
In assay [17] the test system is Salmonella enterica subsp. enterica serovar Heidelberg CICC 21487.
Assay [18] relates to Salmonella enterica subsp. enterica serovar Typhimurium CICC 21483.
For assay [19], the system named is Salmonella enterica subsp. enterica serovar Dakar CICC 21507.
Assay [20] deals with Salmonella typhimurium CMCC 50115.
The subject of assay [21] is Staphylococcus aureus ATCC 43300.
For assay [22], the system named is Salmonella enterica subsp. enterica serovar Braenderup ATCC H9812.
Assay [23] deals with Salmonella enterica subsp. enterica serovar Saintpaul CICC 21486.
Assay [24] deals with Salmonella enterica subsp. enterica serovar Aberdeen CICC 21492.
The test system of assay [25] is Salmonella enterica subsp. enterica serovar Kentucky CICC 21488.
For assay [26], the system named is Salmonella enterica subsp. enterica serovar Montevideo CICC 21588.
Assay [27] deals with Salmonella enterica subsp. enterica serovar Blockley CICC 21489.
Assay [28] relates to Salmonella enterica subsp. enterica serovar Enteritidis CMCC 50041.
Assay [29] deals with Salmonella enterica subsp. enterica serovar Meleagridis CICC 21511.
In assay [30] the test system is Staphylococcus epidermidis ATCC 12228.
In assay [31] the test system is Enterococcus faecalis ATCC 29212.
In assay [32] the test system is Escherichia coli O157:H7.
In assay [33] the test system is Salmonella enterica subsp. enterica serovar Miami CICC 21509.
In assay [34] the test system is Salmonella enterica subsp. enterica serovar Thompson CICC 21480.
Assay [35] deals with Salmonella enterica subsp. enterica serovar Bovismorbificans CICC 21499.
Assay [36] concerns Salmonella enterica subsp. enterica serovar Dublin CICC 21497.
The subject of assay [37] is Salmonella enterica subsp. enterica serovar Eastbourne CICC 21508.
For assay [38], the system named is Staphylococcus aureus ATCC 29213.
In assay [39] the test system is Candida albicans ATCC 10231.
For assay [40], the system named is Salmonella enterica subsp. enterica serovar Agona CICC 21586.
In assay [41] the test system is Salmonella enterica subsp. enterica serovar Bonn CICC 21677.
Assay [42] concerns Salmonella enterica subsp. enterica serovar Potsdam CICC 21500.
Assay [43] relates to Salmonella enterica subsp. enterica serovar Anatum CICC 21498.
Assay [44] has as its system Salmonella enterica subsp. enterica serovar Adelaide CICC 21505.
Assay [45] has as its system Salmonella enterica subsp. arizonae CICC 21506.
The subject of assay [46] is Streptococcus mutans ATCC UA159.

Turning to `CSCC[C@H](NC(=O)[C@H](CC(=O)O)NC(=O)[C@@H](NC(=O)[C@@H](NC(=O)[C@H](C)NC(=O)[C@H](CC(N)=O)NC(=O)[C@H](CC(C)C)NC(=O)[C@H](C)NC(=O)[C@H](C)NC(=O)[C@H](CCCCN)NC(=O)CNC(=O)[C@H](C)NC(=O)[C@H](C)NC(=O)[C@H](CCCCN)NC(=O)CNC(=O)[C@@H](NC(=O)[C@H](Cc1cnc[nH]1)NC(=O)[C@H](CCCCN)NC(=O)[C@H](CC(C)C)NC(=O)[C@H](CC(C)C)NC(=O)[C@@H](NC(=O)[C@H](CCCCN)NC(=O)[C@H](Cc1c[nH]c2ccccc12)NC(=O)[C@H](CC(C)C)NC(=O)[C@H](C)N)[C@@H](C)O)C(C)C)C(C)C)[C@@H](C)O)C(=O)N[C@H](C(=O)N[C@@H](CC(N)=O)C(=O)N[C@@H](CCC(N)=O)C(N)=O)C(C)C` [ALWKTLLKHVGKAAGKAALNAVTDMVNQ], the MIC in assay [1] is 4 µM (≈ 11.8 µg/mL); in assay [2], 8 µM (≈ 23.6 µg/mL); in assay [3], no less than 32 µM; in assay [4], 8 µM (≈ 23.6 µg/mL); in assay [5], 16 µM (≈ 47.2 µg/mL); in [6], 4 µM (≈ 11.8 µg/mL).
As to `C[C@H](NC(=O)[C@H](Cc1ccccc1)NC(=O)CNC(=O)[C@@H]1CCCN1C(=O)[C@@H](N)CS)C(=O)N[C@@H](CCCCN)C(=O)N[C@@H](CCCCN)C(=O)N[C@@H](Cc1ccccc1)C(=O)N[C@@H](C)C(=O)N[C@@H](CCCCN)C(=O)N[C@@H](CCCCN)C(=O)N[C@@H](Cc1ccccc1)C(=O)N[C@@H](CCCCN)C(=O)N[C@@H](CCCCN)C(=O)N[C@@H](Cc1ccccc1)C(=O)N[C@@H](C)C(=O)N[C@@H](CCCCN)C(=O)N[C@@H](CCCCN)C(=O)N[C@@H](Cc1ccccc1)C(=O)N[C@@H](C)C(=O)N[C@@H](CCCCN)C(=O)N[C@@H](Cc1ccccc1)C(=O)N[C@@H](C)C(=O)N[C@@H](Cc1ccccc1)C(=O)N[C@@H](C)C(=O)N[C@@H](Cc1ccccc1)C(=O)O` [CPGFAKKFAKKFKKFAKKFAKFAFAF], the MIC in [7] was determined as 5.28 µM (≈ 16 µg/mL); in assay [8], 10.6 µM (≈ 32 µg/mL); in assay [9] it was 10.6 µM (≈ 32 µg/mL); in assay [10], 5.28 µM (≈ 16 µg/mL); in [5], 10.6 µM (≈ 32 µg/mL); in assay [11], 10.6 µM (≈ 32 µg/mL). Also, the figures for the MIC in assay [12] and in assay [13] were 10.6 µM (≈ 32 µg/mL) and 5.28 µM (≈ 16 µg/mL), respectively.
On to `C[C@@H](O)[C@@H]1NC(=O)[C@@H](NC(=O)[C@H](CCCCN)NC(=O)[C@H](Cc2c[nH]c3ccccc23)NC(=O)[C@H](CCCCN)NC(=O)[C@@H](N)Cc2c[nH]c3ccccc23)CSSC[C@@H](C(=O)N[C@@H](CCCCN)C(=O)N[C@@H](Cc2c[nH]c3ccccc23)C(=O)N[C@@H](CCCCN)C(=O)N[C@@H](Cc2c[nH]c3ccccc23)C(N)=O)NC(=O)CNC(=O)[C@H](CO)NC(=O)[C@H](CCCCN)NC1=O` [WKWKCTKSGCKWKW], for which the MIC amounted to 2.16 µM (≈ 3.99 µg/mL) in assay [14]; 2.16 µM (≈ 3.99 µg/mL) in assay [15]; 4.31 µM (≈ 7.99 µg/mL) in assay [16]; 1.08 µM (≈ 2 µg/mL) in [17]; 2.16 µM (≈ 3.99 µg/mL) in assay [18]; 2.16 µM (≈ 3.99 µg/mL) in [19]. Besides, the MIC in assay [20] worked out at 2.16 µM (≈ 3.99 µg/mL); in [21], 4.31 µM (≈ 7.99 µg/mL); in [22], 2.16 µM (≈ 3.99 µg/mL); in assay [23], 1.08 µM (≈ 2 µg/mL); in assay [24], 2.16 µM (≈ 3.99 µg/mL); in assay [25], 2.16 µM (≈ 3.99 µg/mL). The MIC in assay [26] turned out to be 2.16 µM (≈ 3.99 µg/mL); in assay [27], 4.31 µM (≈ 7.99 µg/mL); in assay [28] it was 4.31 µM (≈ 7.99 µg/mL); in assay [29], 2.16 µM (≈ 3.99 µg/mL); in [30] it was 2.16 µM (≈ 3.99 µg/mL); in assay [31], 1.08 µM (≈ 2 µg/mL). The MIC in assay [32] was determined as 2.16 µM (≈ 3.99 µg/mL); in assay [33], 4.31 µM (≈ 7.99 µg/mL); in assay [34], 2.16 µM (≈ 3.99 µg/mL); in [35] it was 2.16 µM (≈ 3.99 µg/mL); in assay [36] it was 2.16 µM (≈ 3.99 µg/mL); in assay [37], 2.16 µM (≈ 3.99 µg/mL). Besides, the MIC in assay [38] is 2.16 µM (≈ 3.99 µg/mL); in assay [39], 1.08 µM (≈ 2 µg/mL); in assay [40], 2.16 µM (≈ 3.99 µg/mL); in assay [41], 1.08 µM (≈ 2 µg/mL); in assay [42] it was 1.08 µM (≈ 2 µg/mL); in assay [43], 2.16 µM (≈ 3.99 µg/mL). Also, the MIC in assay [44] and in assay [45] was 2.16 µM (≈ 3.99 µg/mL) each time.
In turn, `CC[C@H](C)[C@H](NC(=O)[C@H](CCCCN)NC(=O)[C@H](CCCN=C(N)N)NC(=O)[C@@H](NC(=O)[C@@H](N)Cc1ccc(O)cc1)[C@@H](C)CC)C(=O)N[C@@H](CCCN=C(N)N)C(=O)N[C@@H](CCCN=C(N)N)C(=O)N[C@@H](Cc1ccccc1)C(=O)N[C@@H](Cc1ccccc1)C(=O)N[C@@H](CCCCN)C(=O)N[C@H](C(=O)N[C@@H](CC(C)C)C(=O)N[C@@H](CC(N)=O)C(=O)N[C@@H](CCCCN)C(=O)N[C@@H](CC(N)=O)C(=O)N[C@@H](CC(C)C)C(=O)N[C@@H](CCCCN)C(=O)N[C@@H](CCCCN)C(N)=O)[C@@H](C)O` [YIRKIRRFFKTLNKNLKK] showed an MIC in assay [46] of 13.5 µM (≈ 32 µg/mL).
